Test results as given in the supplement of paper PMC13380429.

Assays:
Details in all cases: 72 h
Caco-2 [1] = test: cell viability relative to DMSO; higher = less toxic
HepG2 [2] = test: as above
Vero E6 [3] = test: as above
Caco-2 [4] = test: drug sensitivity score (DSS) for viability; higher = more toxic; extreme values may be limits of the assay
HepG2 [5] = test: as above
Vero E6 [6] = test: as above
Caco-2 [7] = test: relative viability EC50 (midpoint between 100% and the lowest measured viability); higher = less toxic
HepG2 [8] = test: as above
Vero E6 [9] = test: as above
U2OS [10] = test: cell viability relative to DMSO; higher = less toxic
U2OS [11] = test: drug sensitivity score (DSS) for viability; higher = more toxic; extreme values may be limits of the assay
U2OS [12] = test: relative viability EC50 (midpoint between 100% and the lowest measured viability); higher = less toxic
Calu-3 [13] = test: cell viability relative to DMSO; higher = less toxic
Calu-3 [14] = test: drug sensitivity score (DSS) for viability; higher = more toxic; extreme values may be limits of the assay
Calu-3 [15] = test: relative viability EC50 (midpoint between 100% and the lowest measured viability); higher = less toxic

Row | Compound | cell viability (Caco-2 [1]; 1 nM) | cell viability (Caco-2 [1]; 10 nM) | cell viability (Caco-2 [1]; 100 nM) | cell viability (Caco-2 [1]; 1000 nM) | cell viability (Caco-2 [1]; 10000 nM) | cell viability (HepG2 [2]; 1 nM) | cell viability (HepG2 [2]; 10 nM) | cell viability (HepG2 [2]; 100 nM) | cell viability (HepG2 [2]; 1000 nM) | cell viability (HepG2 [2]; 10000 nM) | cell viability (Vero E6 [3]; 1 nM) | cell viability (Vero E6 [3]; 10 nM) | cell viability (Vero E6 [3]; 100 nM) | cell viability (Vero E6 [3]; 1000 nM) | cell viability (Vero E6 [3]; 10000 nM) | drug sensitivity score (Caco-2 [4]) | drug sensitivity score (HepG2 [5]) | drug sensitivity score (Vero E6 [6]) | relative viability EC50 (Caco-2 [7]) | relative viability EC50 (HepG2 [8]) | relative viability EC50 (Vero E6 [9]) | cell viability (U2OS [10]; 1 nM) | cell viability (U2OS [10]; 10 nM) | cell viability (U2OS [10]; 100 nM) | cell viability (U2OS [10]; 1000 nM) | cell viability (U2OS [10]; 10000 nM) | drug sensitivity score (U2OS [11]) | relative viability EC50 (U2OS [12]) | cell viability (Calu-3 [13]; 1 nM) | cell viability (Calu-3 [13]; 10 nM) | cell viability (Calu-3 [13]; 100 nM) | cell viability (Calu-3 [13]; 1000 nM) | cell viability (Calu-3 [13]; 10000 nM) | drug sensitivity score (Calu-3 [14]) | relative viability EC50 (Calu-3 [15])
1 | O=C(O)COc1ccc(OCCNC[C@H](O)COc2ccccc2)cc1 [ICI-215,001] | 98.1% | 111% | 103% | 103% | 116% | 106% | 104% | 104% | 104% | 97.1% | 106% | 97.5% | 101% | 104% | 92.6% | 0 | 0 | 0 | > 10 µM | > 10 µM | > 10 µM |  |  |  |  |  |  |  |  |  |  |  |  |  | 
2 | COC(F)(F)C(Cl)Cl [methoxyflurane] | 96.2% | 98.1% | 96.9% | 99.8% | 94.4% | 103% | 96.3% | 100% | 94% | 109% | 104% | 102% | 103% | 96.7% | 96.3% | 0 | 0 | 0 | > 10 µM | > 10 µM | > 10 µM | 99.8% | 97.3% | 98.5% | 95.3% | 100% | 0 | > 10 µM |  |  |  |  |  |  | 
3 | O=S(=O)(NCCNC/C=C/c1ccc(Br)cc1)c1cccc2cnccc12 [H-89] | 99.9% | 103% | 98.7% | 99.9% | 89.6% | 95.5% | 96.4% | 91.9% | 102% | 74.7% | 96.8% | 97.6% | 100% | 97% | 82.9% | 0 | 0.8 | 0.7 | > 10 µM |  | > 10 µM | 101% | 96% | 102% | 97.2% | 90.7% | 0 | > 10 µM | 79.7% | 100% | 87.6% | 103% | 118% | 0 | > 10 µM
4 | CCOC(=O)O[C@]1(C(=O)OCCl)CC[C@H]2[C@@H]3CCC4=CC(=O)C=C[C@]4(C)[C@H]3[C@@H](O)C[C@@]21C [loteprednol] | 112% | 104% | 99.1% | 92.1% | 77.9% |  |  |  |  |  | 102% | 100% | 102% | 99.2% | 96% | 1.6 |  | 0 | > 10 µM |  | > 10 µM | 105% | 102% | 100% | 93.4% | 98.1% | 0 | > 10 µM | 98.8% | 100% | 103% | 87.7% | 95.2% | 0.6 | > 10 µM
5 | N#C[C@@H]1C[C@@H]2C[C@@H]2N1C(=O)[C@@H](N)C12CC3CC(CC(O)(C3)C1)C2 | 101% | 98.6% | 95.8% | 104% | 98.2% |  |  |  |  |  | 95.5% | 104% | 97.8% | 97.9% | 96.6% | 0 |  | 0 | > 10 µM |  | > 10 µM | 98.5% | 102% | 93.5% | 100% | 87.7% | 0 | > 10 µM | 98.2% | 108% | 92.8% | 108% | 97.7% | 0 | > 10 µM
6 | CC1=C(C(=O)OC(C)C)C(c2cccc([N+](=O)[O-])c2)C(C(=O)OC2CN(C(c3ccccc3)c3ccccc3)C2)=C(N)N1 (stereo not given) [azelnidipine] | 89% | 94.8% | 100% | 87.1% | 87.6% |  |  |  |  |  | 91.4% | 97.5% | 92.1% | 96.2% | 88.1% | 0 |  | 0 | > 10 µM |  | > 10 µM | 101% | 97.5% | 98.3% | 98.1% | 90.4% | 0 | > 10 µM | 92.8% | 106% | 101% | 96.8% | 109% | 0 | > 10 µM
7 | Cn1cc(/C=C2\C(=O)Nc3cccnc32)c2ccccc21 | 97.9% | 94.4% | 95.2% | 94% | 91.7% |  |  |  |  |  | 96% | 97.1% | 92.7% | 87% | 106% | 0 |  | 0 | > 10 µM |  | > 10 µM | 93.9% | 98.4% | 95.3% | 101% | 99.5% | 0 | > 10 µM | 88.6% | 114% | 102% | 109% | 122% | 0 | > 10 µM
8 | COC(=O)Nc1ccc(-c2nc(N3CCOCC3)c3cnn(C4CCN(C(=O)OC)CC4)c3n2)cc1 [WYE-354] | 98.3% | 99.3% | 97.3% | 83.1% | 48.3% | 104% | 107% | 94.8% | 102% | 44.8% | 97.4% | 99.7% | 91.8% | 96.4% | 64.8% | 5 | 2.8 | 2.2 | 1.38 µM | 3.34 µM |  | 99.3% | 98.3% | 104% | 98.6% | 84.8% | 0.4 | > 10 µM | 93.6% | 91.4% | 95.8% | 92.2% | 52.2% | 3.8 | 
9 | Cc1cc(N)c2ccccc2[n+]1CCCCCCCCCC[n+]1c(C)cc(N)c2ccccc21 [dequalinium] | 96.9% | 94.4% | 98.9% | 92.2% | 36.4% | 98.6% | 100% | 92.7% | 76.2% | 33.8% | 101% | 104% | 104% | 102% | 87.4% | 4.8 | 6.4 | 0 | 2.16 µM | 1.38 µM | > 10 µM | 104% | 102% | 96.2% | 102% | 60.1% | 1.8 |  | 101% | 92.7% | 104% | 107% | 73.5% | 0.8 | 
10 | Cc1oc2ccccc2c1CNC(=O)NCc1cccs1 | 103% | 106% | 98.4% | 96.9% | 96.6% |  |  |  |  |  | 103% | 107% | 102% | 96.9% | 97.9% | 0 |  | 0 | > 10 µM |  | > 10 µM |  |  |  |  |  |  |  | 92.4% | 93.4% | 96.2% | 89.9% | 99.3% | 0 | > 10 µM
11 | CCCCCCOC(=O)NC(=N)c1ccc(NCc2nc3cc(C(=O)N(CCC(=O)OCC)c4ccccn4)ccc3n2C)cc1 [dabigatran-etexilate] | 96.5% | 88.5% | 104% | 93.8% | 78.1% | 91.6% | 106% | 88.9% | 116% | 72.7% | 97.8% | 103% | 99.4% | 102% | 108% | 1.5 | 0.7 | 0 | > 10 µM |  | > 10 µM | 97.7% | 92.9% | 101% | 95.9% | 96.9% | 0 | > 10 µM | 101% | 82.3% | 109% | 103% | 84.3% | 0.1 | > 10 µM
12 | O=c1[nH]c(=O)n([C@H]2C[C@H](O)[C@@H](CO)O2)cc1Br [broxuridine] | 96% | 85.3% | 91.6% | 94.4% | 106% | 97% | 97.1% | 98.1% | 95.3% | 66.7% | 110% | 107% | 99% | 97.8% | 79% | 0 | 2.3 | 1 | > 10 µM |  | > 10 µM | 100% | 98% | 100% | 96.4% | 97.5% | 0 | > 10 µM | 94.2% | 86.5% | 102% | 95.9% | 101% | 0 | > 10 µM
13 | C[C@]1(O)C[C@@H](c2nc(-c3ccc4ccc(-c5ccccc5)nc4c3)c3c(N)nccn32)C1 [linsitinib] | 96.6% | 98.9% | 84.7% | 75.7% | 47.2% | 90.5% | 87% | 95.2% | 62% | 54.8% | 99.9% | 98.9% | 104% | 96.5% | 109% | 6.3 | 7.5 | 0 | 0.674 µM |  | > 10 µM | 101% | 103% | 92.7% | 82.4% | 67.9% | 3.3 |  | 97.7% | 104% | 101% | 116% | 104% | 0 | > 10 µM
14 | Nc1nccc(Oc2ccc(NC(=O)c3cn(COP(=O)(O)O)cc(-c4ccc(F)cc4)c3=O)cc2F)c1Cl | 97.2% | 96.8% | 94% | 94.5% | 90.2% | 104% | 102% | 108% | 99.8% | 35% | 106% | 103% | 105% | 97.5% | 102% | 0 | 3.6 | 0 | > 10 µM | 3.15 µM | > 10 µM | 97.9% | 103% | 98.7% | 104% | 106% | 0 | > 10 µM |  |  |  |  |  |  | 
15 | CCCCc1nc(Cl)c(C(=O)O)n1Cc1ccc(-c2ccccc2-c2nn[nH]n2)cc1 [carboxylosartan] | 96.6% | 98.8% | 95.5% | 100% | 96.9% | 99.6% | 102% | 94.5% | 113% | 95.7% | 103% | 109% | 98.3% | 104% | 96.5% | 0 | 0 | 0 | > 10 µM | > 10 µM | > 10 µM | 103% | 102% | 101% | 98.7% | 102% | 0 | > 10 µM |  |  |  |  |  |  | 
16 | CC(=O)NNC(=O)N1Cc2ccccc2Oc2ccc(Cl)cc21 | 105% | 100% | 107% | 95.5% | 99.7% | 98.5% | 102% | 96.1% | 94% | 87.7% |  |  |  |  |  | 0 | 0.1 |  | > 10 µM | > 10 µM |  | 98.5% | 95.9% | 101% | 99.9% | 102% | 0 | > 10 µM |  |  |  |  |  |  | 
